Reference: patent US5214040A, “Nonsaditive antihistaminics derived from benzimidazoles” (Laboratorios del Dr. Esteve, S.A., priority 1991, dated 1993)

Experiments:
rats = assay: Sedative effect: Irwin test (behaviour of rats); format: in vivo; conditions: i.p.; for Atax. (ataxia) / pas. (passivity, sedation, prostration): score 0 to 3, 1, 2 and 3 hours after treatment
Procedure: Pas.: Passivity, sedation, prostration. Quantitative evaluation between 0 and 3. They are performed 1, 2 and 3 hours after the treatment.
Atax.: Ataxia, the modifications of coordination in movement are evaluated. The are evaluated between 0 and 3. They are performed 1, 2 and 3 hours after the treatment.

[1] = Sedative effect: potentiation of pentobarbital-induced duration of sleep; conditions: for potentiation of pentobarbital-induced duration of sleep (in words): orally; for Potentiation of duration of sleep: p.o., vs control group with pentobarbital 35 mg/kg, s.c.
Procedure: The studied products were administered orally. […] The duration of sleep was compared with a control group of animals treated only with sodium pentobarbital.

[2] = system: 48/80-induced death in rats; assay: Protection against mortality caused by compound 48/80 in rats (antihistaminic activity in vivo); conditions: Rattus norvegicus, ip, 60 min before 48/80 (0.5 mg/kg, i.v.), survival 4 hours after, read-out: ED-50 (protection from 48/80-induced death)
Procedure: The antihistaminic activity was studied by determining the protection against the mortality caused by the product 48/80 in rats. This trial was performed according to the technique described by C.
The activity of the products is studied at several doses in order to determine the dose which is capable of protecting 50% of the animals (ED-50).
Finally, the antihistaminic activity of the product of Example 1 is indicated.

SMILES | Atax. (ataxia) (rats; dose 40 mg/kg) | pas. (passivity, sedation, prostration) (rats; dose 40 mg/kg) | potentiation of pentobarbital-induced duration of sleep (in words) ([1]; at a dose of 20 mg/kg) | ED50 [2] | sedative effect (in words) (rats; Irwin test, rats) | Atax. (ataxia) (rats; dose 80 mg/kg) | pas. (passivity, sedation, prostration) (rats; dose 80 mg/kg) | Potentiation of duration of sleep ([1]; dose 80 mg/kg) | Potentiation of duration of sleep ([1]; dose 160 mg/kg) | potentiation of pentobarbital-induced duration of sleep (in words) ([1]; even at 160 mg/kg, the maximum dose tested)
CN(C)CCOC(c1ccccc1)c1ccccc1 [Difenhidramine, reference compound] | 0.9 | 0 | significantly potentiates | 5.4 mg/kg | – | – | – | – | – | –
CCOCCn1c(CN2CCCN(CCCCn3cccn3)CC2)nc2ccccc21 [Example 1, 1-(2-ethoxyethyl)-2-{4-[4-(pyrazol-1-yl)butyl]homopiperazin-1-ylmethyl}benzimidazole] | – | – | – | 0.04 mg/kg | very weak sedative effect | 0.2 | 0 | 8% | 1% | does not potentiate
